The target in assay [1] is T1, Serine/threonine-protein kinase TAO2 (Homo sapiens) (UniProt Q9UL54).
T1 sequence (whole entry): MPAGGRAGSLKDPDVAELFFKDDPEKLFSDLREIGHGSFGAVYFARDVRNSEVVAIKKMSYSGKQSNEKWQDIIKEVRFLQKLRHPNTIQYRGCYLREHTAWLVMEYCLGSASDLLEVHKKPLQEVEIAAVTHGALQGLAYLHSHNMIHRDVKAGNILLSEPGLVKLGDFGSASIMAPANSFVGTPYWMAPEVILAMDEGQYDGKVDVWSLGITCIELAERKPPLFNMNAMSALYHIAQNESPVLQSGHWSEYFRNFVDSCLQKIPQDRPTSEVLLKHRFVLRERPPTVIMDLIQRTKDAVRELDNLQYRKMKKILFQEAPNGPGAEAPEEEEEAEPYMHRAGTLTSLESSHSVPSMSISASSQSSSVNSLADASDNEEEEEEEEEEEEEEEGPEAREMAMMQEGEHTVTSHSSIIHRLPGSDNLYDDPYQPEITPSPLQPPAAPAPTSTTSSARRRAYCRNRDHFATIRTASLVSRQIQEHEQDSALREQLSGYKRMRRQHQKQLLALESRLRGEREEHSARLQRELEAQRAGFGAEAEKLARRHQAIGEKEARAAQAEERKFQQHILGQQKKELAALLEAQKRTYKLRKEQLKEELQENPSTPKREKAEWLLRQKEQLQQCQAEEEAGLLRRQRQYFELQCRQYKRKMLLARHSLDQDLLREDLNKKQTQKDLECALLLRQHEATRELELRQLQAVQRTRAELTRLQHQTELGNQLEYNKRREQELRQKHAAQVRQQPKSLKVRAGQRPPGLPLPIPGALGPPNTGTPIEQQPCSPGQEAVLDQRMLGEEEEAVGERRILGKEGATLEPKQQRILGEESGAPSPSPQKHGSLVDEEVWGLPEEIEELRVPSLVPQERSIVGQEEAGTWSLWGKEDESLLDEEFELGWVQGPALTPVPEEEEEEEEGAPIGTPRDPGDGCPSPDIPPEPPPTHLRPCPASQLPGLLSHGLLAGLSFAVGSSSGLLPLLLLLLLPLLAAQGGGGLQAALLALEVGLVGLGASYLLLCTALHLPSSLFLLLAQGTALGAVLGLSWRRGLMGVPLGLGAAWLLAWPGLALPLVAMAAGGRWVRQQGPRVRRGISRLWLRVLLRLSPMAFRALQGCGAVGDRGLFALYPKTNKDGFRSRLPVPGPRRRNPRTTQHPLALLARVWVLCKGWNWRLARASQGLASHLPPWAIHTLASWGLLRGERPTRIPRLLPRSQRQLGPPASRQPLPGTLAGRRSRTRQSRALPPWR
In words: Selectivity interaction (Kinase panel (Z-LYTE Assay)) EUB0001632a TAOK2. Conditions: at 10 µM.

For assay [2], the target named is Cyclin-dependent kinase 1 (Homo sapiens) (UniProt P06493). The assay is described as follows: Selectivity interaction (ActivX KiNativ screen (ex vivo kinase selectivity in human PBMCs)) EUB0001619a CDK1. The class given is cell-based. Conditions: PBMC, at 1 µM.
Sequence of Cyclin-dependent kinase 1 (Homo sapiens) (P06493 whole entry, looked up): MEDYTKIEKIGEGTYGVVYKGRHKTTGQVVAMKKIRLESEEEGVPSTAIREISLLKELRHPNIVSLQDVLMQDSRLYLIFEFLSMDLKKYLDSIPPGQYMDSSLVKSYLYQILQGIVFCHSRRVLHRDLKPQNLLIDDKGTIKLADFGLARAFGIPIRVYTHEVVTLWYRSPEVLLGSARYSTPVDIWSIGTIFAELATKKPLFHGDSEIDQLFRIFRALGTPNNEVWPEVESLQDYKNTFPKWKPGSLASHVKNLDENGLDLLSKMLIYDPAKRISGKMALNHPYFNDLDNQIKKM
Assay [3] concerns the target Serine/threonine-protein kinase PLK2 (Homo sapiens, UniProt Q9NYY3). The assay is described as follows: Selectivity interaction (SelectScreen profiling (Invitrogen)) EUB0000607a PLK2. The following applies: at 2 µM.
For assay [4], the target named is T2, Serine/threonine-protein kinase Sgk2 (Homo sapiens) (UniProt Q9HBY8).
T2 sequence (whole entry): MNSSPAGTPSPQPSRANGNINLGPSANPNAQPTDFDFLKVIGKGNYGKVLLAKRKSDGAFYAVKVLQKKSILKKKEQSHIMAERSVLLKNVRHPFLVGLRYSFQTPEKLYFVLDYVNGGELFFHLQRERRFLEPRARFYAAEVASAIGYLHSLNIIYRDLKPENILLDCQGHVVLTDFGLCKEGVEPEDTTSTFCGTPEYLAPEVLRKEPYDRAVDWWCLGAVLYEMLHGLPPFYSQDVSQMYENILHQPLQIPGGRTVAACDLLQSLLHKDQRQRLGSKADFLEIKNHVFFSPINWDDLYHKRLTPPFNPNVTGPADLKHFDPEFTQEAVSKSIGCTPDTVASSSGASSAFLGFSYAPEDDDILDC
In words: Selectivity interaction (ProQinase) EUB0000171b SGK2.

Assay [5] has as its target Serine/threonine-protein kinase 38-like (Homo sapiens) (UniProt Q9Y2H1). The assay is described as follows: Selectivity interaction (KinomeScan (DiscoverX)) EUB0001049a STK38L. Conditions: at 1 µM.
Assay [6] addresses T3, Ephrin type-B receptor 1 (Homo sapiens) (UniProt P54762).
T3 sequence (whole entry): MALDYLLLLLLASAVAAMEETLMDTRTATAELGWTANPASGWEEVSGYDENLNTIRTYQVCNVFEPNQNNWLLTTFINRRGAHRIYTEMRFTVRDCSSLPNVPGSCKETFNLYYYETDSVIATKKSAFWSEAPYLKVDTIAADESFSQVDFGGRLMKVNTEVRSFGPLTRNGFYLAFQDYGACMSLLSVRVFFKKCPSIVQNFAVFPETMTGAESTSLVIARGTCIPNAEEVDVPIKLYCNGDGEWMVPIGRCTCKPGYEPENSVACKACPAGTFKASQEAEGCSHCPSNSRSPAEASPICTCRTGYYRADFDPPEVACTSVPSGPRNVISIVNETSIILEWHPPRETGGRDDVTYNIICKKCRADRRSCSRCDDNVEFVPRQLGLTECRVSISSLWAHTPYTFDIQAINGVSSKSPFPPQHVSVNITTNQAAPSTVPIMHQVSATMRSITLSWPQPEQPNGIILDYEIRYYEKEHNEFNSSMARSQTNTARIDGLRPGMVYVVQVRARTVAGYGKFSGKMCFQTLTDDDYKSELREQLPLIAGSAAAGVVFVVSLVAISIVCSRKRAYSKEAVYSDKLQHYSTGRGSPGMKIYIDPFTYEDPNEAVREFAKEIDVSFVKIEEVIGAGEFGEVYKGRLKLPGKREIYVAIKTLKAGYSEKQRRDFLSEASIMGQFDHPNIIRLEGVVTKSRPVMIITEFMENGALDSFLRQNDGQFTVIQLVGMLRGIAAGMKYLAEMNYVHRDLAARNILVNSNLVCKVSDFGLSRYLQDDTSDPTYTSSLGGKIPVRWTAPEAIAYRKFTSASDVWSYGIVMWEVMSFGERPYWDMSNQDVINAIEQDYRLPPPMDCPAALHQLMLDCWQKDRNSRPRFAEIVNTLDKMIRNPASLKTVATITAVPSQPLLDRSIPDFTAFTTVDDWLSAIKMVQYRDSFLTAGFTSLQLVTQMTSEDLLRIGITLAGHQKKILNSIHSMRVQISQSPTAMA
In words: Selectivity interaction (KinomeScan (DiscoverX)) EUB0000229b EPHB1. The following applies: at 10 µM.

Sequence of Serine/threonine-protein kinase 38-like (Homo sapiens) (Q9Y2H1 2-464 limits assumed): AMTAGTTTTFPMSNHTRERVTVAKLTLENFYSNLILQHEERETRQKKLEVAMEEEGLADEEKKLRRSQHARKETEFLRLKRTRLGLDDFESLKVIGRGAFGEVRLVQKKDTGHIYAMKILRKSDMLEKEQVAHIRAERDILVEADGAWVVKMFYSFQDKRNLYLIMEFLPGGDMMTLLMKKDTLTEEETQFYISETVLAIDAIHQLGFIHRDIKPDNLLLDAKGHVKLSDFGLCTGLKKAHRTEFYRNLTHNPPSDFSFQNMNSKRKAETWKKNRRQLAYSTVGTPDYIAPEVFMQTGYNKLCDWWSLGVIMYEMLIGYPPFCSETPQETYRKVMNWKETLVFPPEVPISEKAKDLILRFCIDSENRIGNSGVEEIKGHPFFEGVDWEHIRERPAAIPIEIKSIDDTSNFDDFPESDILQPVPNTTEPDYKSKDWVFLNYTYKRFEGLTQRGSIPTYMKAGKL
Sequence of Serine/threonine-protein kinase PLK2 (Q9NYY3 whole entry, looked up): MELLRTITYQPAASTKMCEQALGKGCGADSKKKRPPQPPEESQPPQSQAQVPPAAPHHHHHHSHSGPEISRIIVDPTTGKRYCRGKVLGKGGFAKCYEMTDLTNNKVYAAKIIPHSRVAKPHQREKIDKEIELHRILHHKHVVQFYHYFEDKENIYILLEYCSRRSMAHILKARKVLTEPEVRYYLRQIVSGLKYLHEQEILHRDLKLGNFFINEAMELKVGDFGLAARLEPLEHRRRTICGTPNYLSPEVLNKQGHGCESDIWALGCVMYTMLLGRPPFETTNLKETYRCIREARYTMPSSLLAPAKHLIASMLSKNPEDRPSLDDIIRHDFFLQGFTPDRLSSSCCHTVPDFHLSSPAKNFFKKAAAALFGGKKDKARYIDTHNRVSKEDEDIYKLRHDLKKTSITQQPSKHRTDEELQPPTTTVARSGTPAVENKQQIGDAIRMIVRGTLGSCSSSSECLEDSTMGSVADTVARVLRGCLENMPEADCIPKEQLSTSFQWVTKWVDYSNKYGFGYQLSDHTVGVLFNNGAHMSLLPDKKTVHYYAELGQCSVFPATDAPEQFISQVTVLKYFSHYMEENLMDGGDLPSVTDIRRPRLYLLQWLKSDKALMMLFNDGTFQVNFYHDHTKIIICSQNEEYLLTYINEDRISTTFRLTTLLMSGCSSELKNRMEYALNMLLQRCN

`Cn1cc(-n2cnc3c(NCc4nc5cc(Cl)c(Cl)cc5[nH]4)nc(N4CCOCC4)nc32)cn1` gave a % of control in assay [1] of 41.6%. For the compound `N#Cc1cccc(-c2c[nH]c3ncnc(N4CCOCC4)c23)c1`, the % of inhibition in assay [2] was 13%. `CNC(=O)Nc1ccc(-c2nc(N3CC4CCC(C3)O4)c3cnn(C4CCC5(CC4)OCCO5)c3n2)cc1` showed a % of inhibition in assay [3] of 1%. Regarding `C=CC(=O)Nc1cccc(C(=O)Nc2ccc(Nc3cc(-c4[nH]c(SC)nc4C)ccn3)cc2)c1`, the % of control in assay [4] (at 1 µM) is 93%; in assay [4] (at 5 µM), 71%. In turn, `COc1cc(Nc2nc(C)cc(-c3cnn4nc(OC)ccc34)n2)cc(C(F)(F)F)c1` registered a % of control in assay [5] of 100%. In assay [6], `COc1cc(N(C)c2ccnc3ccc(C(F)(F)F)cc23)cc(OC)c1OC` registered a % binding of 97%.

(Values after ChEMBL document CHEMBL5465560, “Selectivity Literature for EUbOPEN Chemogenomic Library” (2024).)
